In patent US9352010B2, “Treatment of HIV-1 infection and AIDS” (The J. David Gladstone Institutes, priority 2011, dated 2016):
Like-named read-outs stand apart in the source and are kept apart here.

Columns and labels:
CFSE-labeled CD4 T-cells = format: cell-based, human; conditions: for indirect killing (loss) of resting CFSE-labeled CD4 T-cells: NL4-3-infected effector cells
HLAC CD4 T-cells = experiment: Spinoculation of HLAC with HIV-1, CD4 T-cell depletion; format: cell-based, human; conditions: ≧2 μg p24gag/200 μl, within 12 hours
Procedure: (A) The spinoculation procedure. (B) Flow cytometry of viable CD4 versus CD8-T-cells in HLAC three days after spinoculation in the presence of the indicated drugs. Data represent live-gated cells, based on the forward-scatter versus side-scatter profile of the complete culture. Of note, apoptotic cells were included in the analysis of caspases activity and cytokine expression (FIG. 10E, F). Drugs concentrations: AZT 5 μM; Efavirenz 100 nM; AMD3100 250 nM; T20 10 μg/ml. The data are representative results of six independent experiments with six different donors. […] (C) Highly permissive SupT1 CD4 T leukemic cells were infected with NL4-3 and cultivated for 3 days to allow substantial infection but not syncytia formation. […] After 2.5 days of additional culture, the extent of syncytia formation in each sample was evaluated by light microscopy. […] Results are representative of three independent experiments.
Fresh HLAC cells are cultured overnight in a V-bottom 96-well plate (1×10^6 cells/well) in the presence of drugs and then chilled on ice. […] The cold temperature allows virion attachment but prevents virion fusion. HIV-coated cells are then tightly packed into a pellet by high-speed centrifugation (1200 g) for 2 hours at 4° C. This step presses the virus between cell membranes, exerting a uniform and consistent attachment. […]

`c1cc(CN2CCCNCCNCCCNCC2)ccc1CN1CCCNCCNCCCNCC1` [AMD3100] was tested, and the “indirect killing of CFSE-labeled CD4 T-cells” value (CFSE-labeled CD4 T-cells; WEAU 16-8 (R5/X4)-infected effector cells) was “prevented indirect killing” and the “AZT-induced killing of activated CFSE-labeled cells” value (CFSE-labeled CD4 T-cells; activated target cells in the presence of AZT) was “prevented the AZT-induced killing”.
`Cc1cn([C@H]2C[C@H](N=[N+]=[N-])[C@@H](CO)O2)c(=O)[nH]c1=O` [AZT] was tested, and the “depletion of activated CFSE-labeled CD4 T-cells” value (CFSE-labeled CD4 T-cells; AZT-resistant HIV-1 clones, AZT 0.5 μM) was “did not deplete”, the “indirect killing (loss) of resting CFSE-labeled CD4 T-cells” value (from here on “indirect killing (loss)”) (CFSE-labeled CD4 T-cells) was “robust” and the “depletion of activated CFSE-labeled CD4 T-cells” value (CFSE-labeled CD4 T-cells; PHA and IL-2 activated target cells, NL4-3 effectors) was “extensively depleted in cultures containing AZT”.
With `O=C1Nc2ccc(Cl)cc2[C@@](C#CC2CC2)(C(F)(F)F)O1` [efavirenz] the “indirect killing (loss)” value (CFSE-labeled CD4 T-cells) was “blocked indirect killing of resting CD4 T-cells as efficiently as AMD3100” and the “CD4 T-cell killing after spinoculation with high doses of HIV-1” value (HLAC CD4 T-cells) was “is not prevented”.
With enfuvirtide the “indirect killing of CFSE-labeled CD4 T-cells” value (CFSE-labeled CD4 T-cells; GIA-SKY (T20-dependent)-infected effector cells, 1 μg/ml T20) was “Indirect killing was observed”, the “indirect killing (loss)” value (CFSE-labeled CD4 T-cells) was “greatly inhibited indirect killing” and the “indirect killing of CFSE-labeled CD4 T-cells” value (CFSE-labeled CD4 T-cells; SIM (T20-resistant)-infected effector cells) was “did not inhibit indirect killing”. The “CD4 T-cell killing after spinoculation with high doses of HIV-1” value (HLAC CD4 T-cells) was “prevented CD4 T-cell killing”.
